The values that follow come from ChEMBL document CHEMBL1697692, “Developing structure-activity relationships for the prediction of hepatotoxicity” (Chem Res Toxicol, 2010).

The series deals with Hepatotoxicity. The experiment in a line: Literature-mined public compounds from Greene et al multi-species hepatotoxicity modelling dataset.

With `Nc1ccc(S(=O)(=O)NC(=O)c2ccccc2)cc1` [SULFABENZAMIDE], the Hepatotoxicity entry was “NE: No evidence of hepatotoxicity in any species”.

On to `Cc1nnc(NS(=O)(=O)c2ccc(N)cc2)s1` [SULFAMETHIZOLE], for which the Hepatotoxicity entry is listed as “HH: Evidence of human hepatotoxicity”.

On to `Nc1ccc(S(N)(=O)=O)cc1` [SULFANILAMIDE], for which the Hepatotoxicity result is reported as “HH: Evidence of human hepatotoxicity”.

Consider `O=C(O)c1cc(/N=N/c2ccc(S(=O)(=O)Nc3ccccn3)cc2)ccc1O` [SULFASALAZINE], for which the Hepatotoxicity entry is on record as “HH: Evidence of human hepatotoxicity”.

Turning to `O=C1C(CC[S+]([O-])c2ccccc2)C(=O)N(c2ccccc2)N1c1ccccc1` (centres undefined) [SULFINPYRAZONE], the Hepatotoxicity entry is reported as “HH: Evidence of human hepatotoxicity”.

Consider `Nc1c2c(nc3ccccc13)CCCC2` [TACRINE], for which the Hepatotoxicity entry was “AH: Evidence for animal hepatotoxicity but not tested in humans”.

As to `Cc1nc(C)c2c(n1)N(Cc1ccc(-c3ccccc3-c3nnn[nH]3)cc1)C(=O)CC2` [TASOSARTAN], the Hepatotoxicity entry was “HH: Evidence of human hepatotoxicity”.

With `C[C@H](CCC(=O)NCCS(=O)(=O)O)[C@H]1CC[C@H]2[C@@H]3[C@@H](O)C[C@@H]4C[C@H](O)CC[C@]4(C)[C@H]3CC[C@]12C` [TAURURSODIOL], the Hepatotoxicity result is “HH: Evidence of human hepatotoxicity”.

`CC[C@H]1OC(=O)[C@H](C)C(=O)[C@H](C)[C@@H](O[C@@H]2O[C@H](C)C[C@H](N(C)C)[C@H]2O)[C@](C)(OC)C[C@@H](C)C(=O)[C@H](C)[C@H]2N(CCCCn3cnc(-c4cccnc4)c3)C(=O)O[C@]12C` [TELITHROMYCIN]: the Hepatotoxicity result was “HH: Evidence of human hepatotoxicity”.

In the case of `CC1CN(c2cc3c(cc2F)c(=O)c(C(=O)O)cn3-c2ccc(F)cc2F)CCN1` (centres undefined) [TEMAFLOXACIN], the Hepatotoxicity result is listed as “HH: Evidence of human hepatotoxicity”.

For the compound `CC(C)(C)c1ccc(C(O)CCCN2CCC(C(O)(c3ccccc3)c3ccccc3)CC2)cc1` (centres undefined) [TERFENADINE], the Hepatotoxicity entry is given as “NE: No evidence of hepatotoxicity in any species”.

As for `CCCCNc1ccc(C(=O)OCCN(C)C)cc1.Cl` [TETRACAINE HYDROCHLORIDE], the Hepatotoxicity entry was “NE: No evidence of hepatotoxicity in any species”.

Regarding `CN(C)[C@@H]1C(O)=C(C(N)=O)C(=O)[C@@]2(O)C(O)=C3C(=O)c4c(O)cccc4[C@@](C)(O)[C@H]3C[C@@H]12` [TETRACYCLINE], the Hepatotoxicity entry is “HH: Evidence of human hepatotoxicity”.

Regarding `Cn1c(=O)c2[nH]cnc2n(C)c1=O.O` [THEOPHYLLINE], the Hepatotoxicity result was “NE: No evidence of hepatotoxicity in any species”.

With `Cc1ncc(C[n+]2csc(CCO)c2C)c(N)n1` [THIAMINE ION], the Hepatotoxicity result is listed as “NE: No evidence of hepatotoxicity in any species”.

For `CC(=N)S` [THIOACETAMIDE], the Hepatotoxicity result was “AH: Evidence for animal hepatotoxicity but not tested in humans”.

With `CN1c2ccccc2C(NCCCCCCC(=O)O)c2ccc(Cl)cc2S1(=O)=O` (centres undefined) [TIANEPTINE], the Hepatotoxicity result was “HH: Evidence of human hepatotoxicity”.

As for `Clc1ccccc1CN1CCc2sccc2C1` [TICLOPIDINE], the Hepatotoxicity result is on record as “HH: Evidence of human hepatotoxicity”.

Regarding `CC(C)(C)NC[C@H](O)COc1nsnc1N1CCOCC1.O=C(O)/C=C\C(=O)O` [TIMOLOL MALEATE], the Hepatotoxicity result was “HH: Evidence of human hepatotoxicity”.

`NC[C@H]1O[C@H](O[C@H]2[C@H](O)[C@@H](O[C@H]3O[C@H](CO)[C@@H](O)[C@H](N)[C@H]3O)[C@H](N)C[C@@H]2N)[C@H](N)C[C@@H]1O` [TOBRAMYCIN]: the Hepatotoxicity result is on record as “HH: Evidence of human hepatotoxicity”.

Consider `Cc1ccc(S(=O)(=O)NC(=O)NN2CCCCCC2)cc1` [TOLAZAMIDE], for which the Hepatotoxicity result is reported as “HH: Evidence of human hepatotoxicity”.

For `Cc1ccc(C(=O)c2cc(O)c(O)c([N+](=O)[O-])c2)cc1` [TOLCAPONE], the Hepatotoxicity entry is reported as “HH: Evidence of human hepatotoxicity”.

Regarding `Cc1ccc(C(=O)c2ccc(CC(=O)O)n2C)cc1` [TOLMETIN], the Hepatotoxicity entry was “HH: Evidence of human hepatotoxicity”.

In the case of `Cl.N[C@@H]1C[C@H]1c1ccccc1` [TRANYLCYPROMINE HYDROCHLORIDE], the Hepatotoxicity entry was “NE: No evidence of hepatotoxicity in any species”.

With `Cl.O=c1n(CCCN2CCN(c3cccc(Cl)c3)CC2)nc2ccccn12` [TRAZODONE HYDROCHLORIDE], the Hepatotoxicity entry is given as “HH: Evidence of human hepatotoxicity”.

As to `CC1=C(/C=C/C(C)=C/C=C/C(C)=C/C(=O)O)C(C)(C)CCC1` [TRETINOIN], the Hepatotoxicity result was “HH: Evidence of human hepatotoxicity”.

Turning to `ClC=C(Cl)Cl` [TRICHLOROETHYLENE], the Hepatotoxicity result is listed as “AH: Evidence for animal hepatotoxicity but not tested in humans”.

Consider `CN1CCN(CCCN2c3ccccc3Sc3ccc(C(F)(F)F)cc32)CC1` [TRIFLUOPERAZINE], for which the Hepatotoxicity result is listed as “HH: Evidence of human hepatotoxicity”.

With `CN1C(=O)OC(C)(C)C1=O` [TRIMETHADIONE], the Hepatotoxicity result was “HH: Evidence of human hepatotoxicity”.

`COc1cc(C(=O)NCc2ccc(OCCN(C)C)cc2)cc(OC)c1OC.Cl` [TRIMETHOBENZAMIDE HYDROCHLORIDE]: the Hepatotoxicity entry is on record as “HH: Evidence of human hepatotoxicity”.

Regarding `COc1cc(Cc2cnc(N)nc2N)cc(OC)c1OC` [TRIMETHOPRIM], the Hepatotoxicity entry is listed as “HH: Evidence of human hepatotoxicity”.

`CN(C)CCN(Cc1ccccc1)c1ccccn1.Cl` [TRIPELENNAMINE HYDROCHLORIDE]: the Hepatotoxicity entry is listed as “HH: Evidence of human hepatotoxicity”.

For the compound `Cc1c(C)c2c(c(C)c1O)CCC(C)(COc1ccc(CC3SC(=O)NC3=O)cc1)O2` (centres undefined) [TROGLITAZONE], the Hepatotoxicity entry was “HH: Evidence of human hepatotoxicity”.

`CO[C@H]1C[C@H](O[C@H]2[C@H](C)[C@@H](O[C@@H]3O[C@H](C)C[C@H](N(C)C)[C@H]3OC(C)=O)[C@@H](C)C[C@@]3(CO3)C(=O)[C@H](C)[C@@H](OC(C)=O)[C@@H](C)[C@@H](C)OC(=O)[C@@H]2C)O[C@@H](C)[C@@H]1OC(C)=O` [TROLEANDOMYCIN]: the Hepatotoxicity entry is “HH: Evidence of human hepatotoxicity”.

`NC(CO)(CO)CO` [TROMETHAMINE]: the Hepatotoxicity result is “NE: No evidence of hepatotoxicity in any species”.

For the compound `N[C@@H]1[C@H]2CN(c3nc4c(cc3F)c(=O)c(C(=O)O)cn4-c3ccc(F)cc3F)C[C@@H]12` [TROVAFLOXACIN], the Hepatotoxicity result is recorded as “HH: Evidence of human hepatotoxicity”.

`Oc1ncc(N(CCCl)CCCl)c(O)n1` [URACIL MUSTARD]: the Hepatotoxicity entry is reported as “HH: Evidence of human hepatotoxicity”.

Turning to `CN[C@H](CC(C)C)C(=O)N[C@H]1C(=O)N[C@@H](CC(N)=O)C(=O)N[C@H]2C(=O)N[C@H]3C(=O)N[C@H](C(=O)N[C@H](C(=O)O)c4cc(O)cc(O)c4-c4cc3ccc4O)[C@H](O)c3ccc(c(Cl)c3)Oc3cc2cc(c3O[C@@H]2O[C@H](CO)[C@@H](O)[C@H](O)[C@H]2O[C@H]2C[C@](C)(N)[C@H](O)[C@H](C)O2)Oc2ccc(cc2Cl)[C@H]1O` [VANCOMYCIN], the Hepatotoxicity entry was “HH: Evidence of human hepatotoxicity”.

`Nc1ncnc2c1ncn2[C@@H]1O[C@H](CO)[C@@H](O)[C@@H]1O` [VIDARABINE]: the Hepatotoxicity entry was “NE: No evidence of hepatotoxicity in any species”.

Consider `CC[C@]1(O)C[C@@H]2CN(CCc3c([nH]c4ccccc34)[C@@](C(=O)OC)(c3cc4c(cc3OC)N(C)[C@H]3[C@@](O)(C(=O)OC)[C@H](OC(C)=O)[C@]5(CC)C=CCN6CC[C@]43[C@@H]65)C2)C1.O=S(=O)(O)O` [VINBLASTINE SULFATE], for which the Hepatotoxicity result is “NE: No evidence of hepatotoxicity in any species”.

Turning to `CC[C@]1(O)C[C@H]2CN(CCc3c([nH]c4ccccc34)[C@@](C(=O)OC)(c3cc4c(cc3OC)N(C=O)[C@H]3[C@@](O)(C(=O)OC)[C@H](OC(C)=O)[C@]5(CC)C=CCN6CC[C@]43[C@@H]65)C2)C1.O=S(=O)(O)O` [VINCRISTINE SULFATE], the Hepatotoxicity entry was “HH: Evidence of human hepatotoxicity”.

As for `CCCCCCCCCCCCCCCC(=O)OC/C=C(C)/C=C/C=C(C)/C=C/C1=C(C)CCCC1(C)C` [VITAMIN A PALMITATE], the Hepatotoxicity entry is given as “AH: Evidence for animal hepatotoxicity but not tested in humans”.

Consider `CC(=O)CC(c1ccccc1)c1c(O)c2ccccc2oc1=O` (centres undefined) [WARFARIN], for which the Hepatotoxicity entry was “WE: Weak evidence (<10 case reports) of human hepatotoxicity”.

Regarding `COc1cc(C(=O)NS(=O)(=O)c2ccccc2C)ccc1Cc1cn(C)c2ccc(NC(=O)OC3CCCC3)cc12` [ZAFIRLUKAST], the Hepatotoxicity result is given as “HH: Evidence of human hepatotoxicity”.

For `Nc1ccn([C@H]2CC[C@@H](CO)O2)c(=O)n1` [ZALCITABINE], the Hepatotoxicity result was “NE: No evidence of hepatotoxicity in any species”.

As to `Cc1cn([C@H]2C[C@H](N=[N+]=[N-])[C@@H](CO)O2)c(=O)[nH]c1=O` [ZIDOVUDINE], the Hepatotoxicity entry is on record as “HH: Evidence of human hepatotoxicity”.

With `CC(c1cc2ccccc2s1)N(O)C(N)=O` (centres undefined) [ZILEUTON], the Hepatotoxicity result is given as “HH: Evidence of human hepatotoxicity”.

For the compound `Cc1ccc(-c2nc3ccc(C)cn3c2CC(=O)N(C)C)cc1` [ZOLPIDEM], the Hepatotoxicity result was “WE: Weak evidence (<10 case reports) of human hepatotoxicity”.

With `Cc1cc(CC(=O)O)n(C)c1C(=O)c1ccc(Cl)cc1` [ZOMEPIRAC], the Hepatotoxicity result is recorded as “NE: No evidence of hepatotoxicity in any species”.

For AURANOFIN, the Hepatotoxicity result is given as “HH: Evidence of human hepatotoxicity”.

As for AUROTHIOGLUCOSE, the Hepatotoxicity result was “HH: Evidence of human hepatotoxicity”.

On to BISMUTH SUBSALICYLATE, for which the Hepatotoxicity entry is on record as “NE: No evidence of hepatotoxicity in any species”.

Consider CADMIUM DICHLORIDE, for which the Hepatotoxicity entry was “AH: Evidence for animal hepatotoxicity but not tested in humans”.

On to CARBOPLATIN, for which the Hepatotoxicity entry is listed as “HH: Evidence of human hepatotoxicity”.

In the case of CISPLATIN, the Hepatotoxicity result was “HH: Evidence of human hepatotoxicity”.

Take CYANOCOBALAMIN: the Hepatotoxicity result is reported as “NE: No evidence of hepatotoxicity in any species”.

Take DICHROMATE: the Hepatotoxicity entry is given as “AH: Evidence for animal hepatotoxicity but not tested in humans”.

As for FERROUS SULFATE, the Hepatotoxicity result is “NE: No evidence of hepatotoxicity in any species”.

For GADOLINIUM HYDROCHLORIDE, the Hepatotoxicity result is given as “AH: Evidence for animal hepatotoxicity but not tested in humans”.
